# According to PubChem BioAssay (NCI):
#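 Results reflect a 48-hour exposure of cells in 96-well plates to compound at five concentrations. GI50 = concentration required for 50% inhibition of growth. TGI: concentration producing complete growth inhibition.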
# How the values were obtained:
# Experiment in all cases: DTP human tumour cell line panel, 48 h
# MALME-3M melanoma = system: MALME-3M melanoma
# HS 578T breast = system: HS 578T breast
# MDA-MB-435 = system: MDA-MB-435
# SNB-19 CNS = system: SNB-19 CNS
# M14 melanoma = system: M14 melanoma
# T-47D breast = system: T-47D breast
# SF-268 CNS = system: SF-268 CNS
# SW-620 colon = system: SW-620 colon
# NCI/ADR-RES ovarian = system: NCI/ADR-RES ovarian
# HOP-62 NSCLC = system: HOP-62 NSCLC
# RPMI-8226 leukemia = system: RPMI-8226 leukemia
# HCC-2998 colon = system: HCC-2998 colon
# SK-OV-3 ovarian = system: SK-OV-3 ovarian
# A498 renal = system: A498 renal
# SF-295 CNS = system: SF-295 CNS
# 786-0 renal = system: 786-0 renal
# SK-MEL-28 melanoma = system: SK-MEL-28 melanoma
# UACC-257 melanoma = system: UACC-257 melanoma
# ACHN renal = system: ACHN renal
# NCI-H460 lung = system: NCI-H460 lung
# OVCAR-5 ovarian = system: OVCAR-5 ovarian
# NCI-H522 lung = system: NCI-H522 lung
# KM12 colon = system: KM12 colon
# MOLT-4 leukemia = system: MOLT-4 leukemia
# PC-3 prostate = system: PC-3 prostate
# LOX IMVI melanoma = system: LOX IMVI melanoma
# HT29 colon = system: HT29 colon
# MCF7 breast = system: MCF7 breast
# SF-539 CNS = system: SF-539 CNS
# SK-MEL-5 melanoma = system: SK-MEL-5 melanoma
structure (smiles),measurement,setting,value
CC(=O)Nc1ccc(-c2cn(-c3cccc(C(=O)Nc4ccc(F)c(C(F)(F)F)c4)c3)nn2)cn1,GI50,MALME-3M melanoma,9.6 µM
same,TGI,MALME-3M melanoma,21.8 µM
same,GI50,HS 578T breast,17.4 µM
same,TGI,HS 578T breast,66.7 µM
same,GI50,MDA-MB-435,16.8 µM
same,TGI,MDA-MB-435,32.9 µM
same,GI50,SNB-19 CNS,19.5 µM
same,TGI,SNB-19 CNS,34.9 µM
same,GI50,M14 melanoma,15 µM
same,TGI,M14 melanoma,41.3 µM
same,GI50,T-47D breast,22.9 µM
same,TGI,T-47D breast,66.4 µM
same,GI50,SF-268 CNS,26.5 µM
same,TGI,SF-268 CNS,63.4 µM
same,GI50,SW-620 colon,17.1 µM
same,TGI,SW-620 colon,33.8 µM
same,GI50,NCI/ADR-RES ovarian,27.5 µM
same,TGI,NCI/ADR-RES ovarian,89.1 µM
same,GI50,HOP-62 NSCLC,21.2 µM
same,TGI,HOP-62 NSCLC,44.6 µM
same,GI50,RPMI-8226 leukemia,24.3 µM
same,TGI,RPMI-8226 leukemia,66.2 µM
same,GI50,HCC-2998 colon,16.9 µM
same,TGI,HCC-2998 colon,32.6 µM
same,GI50,SK-OV-3 ovarian,20.7 µM
same,TGI,SK-OV-3 ovarian,45.4 µM
same,GI50,A498 renal,26.6 µM
same,TGI,A498 renal,43.4 µM
same,GI50,SF-295 CNS,14.6 µM
same,TGI,SF-295 CNS,28.2 µM
same,GI50,786-0 renal,2.6 µM
same,TGI,786-0 renal,11.1 µM
same,GI50,SK-MEL-28 melanoma,14.6 µM
same,TGI,SK-MEL-28 melanoma,28 µM
same,GI50,UACC-257 melanoma,17.6 µM
same,TGI,UACC-257 melanoma,38.6 µM
same,GI50,ACHN renal,15.7 µM
same,TGI,ACHN renal,30.1 µM
same,GI50,NCI-H460 lung,16.8 µM
same,TGI,NCI-H460 lung,32.2 µM
same,GI50,OVCAR-5 ovarian,17.7 µM
same,TGI,OVCAR-5 ovarian,35 µM
same,GI50,NCI-H522 lung,17.7 µM
same,TGI,NCI-H522 lung,38.1 µM
same,GI50,KM12 colon,6.64 µM
same,TGI,KM12 colon,53.5 µM
same,GI50,MOLT-4 leukemia,20.2 µM
same,TGI,MOLT-4 leukemia,61.1 µM
same,GI50,PC-3 prostate,16 µM
same,TGI,PC-3 prostate,38.1 µM
same,GI50,LOX IMVI melanoma,13.8 µM
same,TGI,LOX IMVI melanoma,26.7 µM
same,GI50,HT29 colon,16.3 µM
same,TGI,HT29 colon,33.6 µM
same,GI50,MCF7 breast,16 µM
same,TGI,MCF7 breast,34.3 µM
same,GI50,SF-539 CNS,15.1 µM
same,TGI,SF-539 CNS,28.5 µM
same,GI50,SK-MEL-5 melanoma,17.2 µM
